{"source": "patent US10065951B2", "about": "“Small molecule transcription modulators of bromodomains” (Icahn School of Medicine at Mount Sinai, priority 2014, dated 2018)", "key": {"[1]": {"tested_on": "CBP occupancy at promoters (Lmnb1 transcription start site)", "assay": "Chromatin immunoprecipitation (ChIP) of CBP and H3K18ac at gene promoters", "type": "cell-based", "details": "10 nM, one day", "experimental": "FIG. 9 illustrates the ChIP analysis of samples isolated from cells cultured as previously described and then precipitated using antibodies specific for CBP, and for H3K18ac. A mock ChIP (No Antibody) was used as negative control. The amount of chromatin recovered at the Lmnb1 transcription start site was measured by qPCR and expressed as percentage of input for each sample. Error bars are s.e.m. of three independent experiments (*p<0.05, **p<0.01 two-tail t test).\nOligodendrocyte progenitors (4×10^6) were crosslinked in 1% formaldehyde, lysed in nuclear lysis buffer (50 mM Tris-HCL (pH 8.0), 10 mM EDTA, 1% SDS, Protease Inhibitors (Roche) and PMSF) and sonicated using a Bioruptor (Diagenode) sonicator to produce chromatin with an average length of 500 base pairs. Chromatin was aliquoted and immunopreciptiated using protein A magnetic beads (Dynabeads-Invitrogen 100.01D) coated with 2 μg of antibodies to CBP (santa cruz sc-369), H3-K9ac (abcam ab4441), H3-K9ac and K14 (millipore 06-599), H3-K18ac (abcam ab1191). A mock immunopreciptitation was set-up as a control (No antibody). Immunoprecipitations were carried out overnight. […]\nQuantitative PCR was performed using primers to detect the transcriptional start site of the Lmnb1 promoter; forward 5′-[…] […]"}, "[2]": {"tested_on": "histone H3 acetylation in Oli-Neu cells", "assay": "Western blot of histone acetylation in Oli-Neu oligodendrocyte progenitor cell line", "type": "cell-based, mouse", "details": "oligodendrocyte-derived cell lines, one day treatment", "experimental": "FIG. 4 illustrates the effects of dose-dependent 4c treatment (one day) of immortialized oligodendrocyte progenitors (Oli-Neu) on histone H3 acetylation and α-tubulin assessed by Western blotting using specific antibodies.\nOli-Neu cell line derived from mouse oligodendrocyte progenitors immortalized with the Neu antigen were grown on poly-ornithine-coated culture dishes and maintained proliferating in growth medium ODM plus 1% horse serum as previously described (He et al., 2007). Oli-Neu cells were induced to differentiation in ODM+0.5 mM dybutiryl-cAMP (Sigma) and treated together with CM000149 at indicated concentrations for one day. The cells treated with DMSO were used as the control. Total proteins from cultured cells were extracted using lysis buffer containing 50 mM Hepes (pH 7.4), 150 mM NaCl, 1% NP-40, 1 mM dithiothreitol (DTT), 1 mM EDTA, 0.01% phenylmethylsulfonyl fluoride (PMSF), 1 mM aprotinin and 1 mM leupeptin. Equal amount (40 μg) of proteins were loaded on 12% SDS-PAGE for separation and transferred onto PVDF (Millipore) membrane using a buffer containing 25 mM Tris base, pH 8.3, 192 mM glycine, 20% methanol for 1 hour at 100 V at 4° C. […]"}}}
{"smiles": "CC(=O)NCCCCn1c2c(c3ccccc31)C(=O)NCC2", "note": "[4c, 2,3,4,5-tetrahydro-5-(4′-acetamidobutyl)-1H-pyrido-[4,3-b]indol-1-one]", "values": [{"measurement": "acetylation of histone H3 at lysine 18 (H3K18ac) at promoters", "setting": "[1]", "result": "but not the acetylation of histone H3 at lysine 18 (H3K18ac) was decreased"}, {"measurement": "association of CBP with promoters", "setting": "[1]", "result": "decreased"}, {"measurement": "global histone acetylation", "setting": "[2]", "result": "decrease of global histone acetylation in a dose-dependent manner"}]}
